# Laboratory results from patent US20100261711A1, “SELECTIVE ANTICONVULSANT AGENTS AND THEIR USES” (WiSys Technology Foundation, priority 2009, published 2010).
# Like-named read-outs stand apart in the source and are kept apart here.
# Columns and labels:
# Format in all cases: in vivo
# 6 Hz psychomotor seizure = experiment: Minimal clonic seizure (6 Hz) test; details: Mice IP; for 6 Hz, animals protected/tested: 100 m/k; for ED50: Mus musculus, ip
# Method in brief: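 Mice dosed ip with test compound before 6 Hz corneal-type electrical stimulation lasting 3 s. Protection scored as absence of minimal clonic phase and stereotyped automatistic behaviour seen in untreated animals.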
# [1] = test system: Metrazol-induced clonic seizures; experiment: Subcutaneous Metrazol test (scMet), mice
# [2] = test system: minimal muscular or neurological impairment; experiment: Toxicity (TOX), rotorod procedure, mice
# MES-induced seizures [3] = experiment: Maximal electroshock test (MES), rats; details: Rat PO; for MES, animals protected/tested: 30 mg/kg
# Procedure: The benzodiazepine derivative compounds selective for GABAa receptor subunits were tested for the ability to suppress seizures in several standard rat and mouse models of epilepsy. […] The standard models incorporated into anticonvulsant screening include the maximal electroshock test (MES), the subcutaneous Metrazol test (scMet), and evaluations of toxicity (TOX). The data for each condition is presented as a ratio of either the number of animals protected or toxic (loss of locomotor activity) over the number of animals tested at a given time point and dose.
# The MES is a model for generalized tonic-clonic seizures and provides an indication of a compound's ability to prevent seizure spread when all neuronal circuits in the brain are maximally active. These seizures are highly reproducible and are electrophysiologically consistent with human seizures. For all tests based on MES convulsions, 60 Hz of alternating current (50 mA in mice, 150 in rats) is delivered for by corneal electrodes which have been primed with an electrolyte solution containing an anesthetic agent (0.5% tetracaine HCL). For Test 1, mice are tested at various intervals following doses of 30, 100 and 300 mg/kg of test compound given by ip injection of a volume of 0.01 mL/g. In Test 2, rats are tested after a dose of 30 mg/kg (po) in a volume of 0.04 mL/g. Test 8 uses varying doses administered via i.p. injection, again in a volume of 0.04 ml/g. […] In Antiepileptic Drugs, Levy, R. H. M., Meldrum, B. S., Eds.; Raven Press: New York, pp 99-110, 1995b.).
# [4] = test system: Metrazol-induced clonic seizures; experiment: Subcutaneous Metrazol test (scMet), rats
# [5] = test system: minimal motor deficit (ataxia, abnormal gait); experiment: Toxicity (TOX), minimal motor deficit, rats; details: for TOX (Rotorod Test), animals toxic/tested: Rat IP, 100 mg/kg; for Tox, animals toxic/tested: 50 mg/kg
# MES-induced seizures [6] = experiment: Maximal electroshock test (MES), mice
# [7] = Mice, 50 mg/kg PO (Mice IP), 0.5 hr
# [8] = Mice, 50 mg/kg PO (Mice IP), 4.0 hr
compound,measurement,setting,value
"C#Cc1ccc2c(c1)C(c1ccccn1)=NCc1c(C(=O)OCC)ncn1-2 [Hz166 (106), 8-Acetylenyl-6-pyridin-2-yl-4H-benzo[f]imidazo[1,5-a][1,4]diazepine-3-carboxylic acid ethyl ester]","6 Hz, animals protected/tested","6 Hz psychomotor seizure; 44 mA, 0.5 hr",1/4
same,"6 Hz, animals protected/tested","6 Hz psychomotor seizure; 44 mA, 1.0 hr",1/4
same,"6 Hz, animals protected/tested","6 Hz psychomotor seizure; 44 mA, 2.0 hr",0/4
same,"6 Hz, animals protected/tested","6 Hz psychomotor seizure; 44 mA, 4 hr",0/4
same,"6 Hz, animals protected/tested","6 Hz psychomotor seizure; 44 mA, […]",4/4
same,ED50,"6 Hz psychomotor seizure; 32 mA, read-out: ED50 32 mA (6 Hz test)",25.8 mg/kg
same,ED50,"6 Hz psychomotor seizure; 44 mA, read-out: ED50 44 mA (6 Hz test)",115 mg/kg
same,mice protected against scMet induced seizures,"[1]; Mice IP, 100 mg/kg, 0.5 hr",60%
same,"scMet, animals protected/tested","[1]; Mice IP, 100 mg/kg, 0.5 hr",3/5
same,"scMet, animals protected/tested","[1]; Mice IP, 100 mg/kg, 4.0 hr",0/1
same,"scMet, animals protected/tested",[1]; [7],4/4
same,"scMet, animals protected/tested",[1]; [8],0/4
same,ED50,"[1]; Mus musculus, Mice IP",16.3 mg/kg
same,"TOX (Rotorod Test), animals toxic/tested","[2]; Mice IP, 100 mg/kg, 0.5 hr",0/8
same,"TOX (Rotorod Test), animals toxic/tested","[2]; Mice IP, 100 mg/kg, 4.0 hr",0/4
same,TD50 TOX,"[2]; Mice IP, rotorod",> 500 mg/kg
same,"TOX (Rotorod Test), animals toxic/tested",[2]; [7],0/4
same,"TOX (Rotorod Test), animals toxic/tested",[2]; [8],0/4
same,ED50,MES-induced seizures [3],> 250 mg/kg
same,"MES, animals protected/tested",MES-induced seizures [3]; 0.5 h,1/4
same,"MES, animals protected/tested",MES-induced seizures [3]; 1.0 h,0/4
same,"MES, animals protected/tested",MES-induced seizures [3]; 2.0 h,0/4
same,"MES, animals protected/tested",MES-induced seizures [3]; 4.0 h,0/4
same,"MES, animals protected/tested",MES-induced seizures [3]; […],0/4
same,ED50,[4]; Rat IP,35.5 mg/kg
same,"scMet, animals protected/tested","[4]; Rat IP, 100 mg/kg, 0.5 hr",7/8
same,"scMet, animals protected/tested","[4]; Rat IP, 100 mg/kg, 4.0 hr",5/8
same,ED50,[4]; Rat PO,98.5 mg/kg
same,"scMet, animals protected/tested","[4]; Rat PO, 50 mg/kg, 0.5 h",4/4
same,"scMet, animals protected/tested","[4]; Rat PO, 50 mg/kg, 1.0 h",2/4
same,"scMet, animals protected/tested","[4]; Rat PO, 50 mg/kg, 2.0 h",1/4
same,"scMet, animals protected/tested","[4]; Rat PO, 50 mg/kg, 4.0 h",0/4
same,"scMet, animals protected/tested","[4]; Rat PO, 50 mg/kg, […]",0/4
same,"TOX (Rotorod Test), animals toxic/tested",[5]; 0.5 hr,0/8
same,"TOX (Rotorod Test), animals toxic/tested",[5]; 4.0 hr,0/8
same,"Tox, animals toxic/tested","[5]; Rat PO, 0.5 h",0/4
same,"Tox, animals toxic/tested","[5]; Rat PO, 1.0 h",0/4
same,"Tox, animals toxic/tested","[5]; Rat PO, 2.0 h",0/4
same,"Tox, animals toxic/tested","[5]; Rat PO, 4.0 h",0/4
same,"Tox, animals toxic/tested","[5]; Rat PO, […]",0/4
same,TD50 TOX,"[5]; Rat PO, abnormal gait",>500 mg/kg
same,motor impairment / sedative or locomotor effects,"[5]; rats, oral administration, up to 500 mg/kg",No motor impairment
same,"MES, animals protected/tested","MES-induced seizures [6]; Mice IP, 100 mg/kg, 0.5 hr",0/3
same,"MES, animals protected/tested","MES-induced seizures [6]; Mice IP, 100 mg/kg, 4.0 hr",0/3
same,"MES, animals protected/tested",MES-induced seizures [6]; [7],1/4
same,"MES, animals protected/tested",MES-induced seizures [6]; [8],0/4
same,ED50,"MES-induced seizures [6]; Mus musculus, Mice IP",> 300 mg/kg
